Source: PubChem BioAssay (NCI)
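The concentration for 50% growth inhibition is given as GI50. TGI marks complete inhibition of growth.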

Experiments:
Test in all cases: NCI anticancer screen, dose series, 384-well format
786-0 renal = test system: 786-0 renal
A498 renal = test system: A498 renal
A549 NSCLC = test system: A549 NSCLC
ACHN renal = test system: ACHN renal
BT-549 breast = test system: BT-549 breast
CAKI-1 renal = test system: CAKI-1 renal
CCRF-CEM leukemia = test system: CCRF-CEM leukemia
COLO 205 colon = test system: COLO 205 colon
DU-145 prostate = test system: DU-145 prostate
EKVX NSCLC = test system: EKVX NSCLC
HCC-2998 colon = test system: HCC-2998 colon
HCT-116 colon = test system: HCT-116 colon
HCT-15 colon = test system: HCT-15 colon
HL-60(TB) leukemia = test system: HL-60(TB) leukemia
HOP-62 NSCLC = test system: HOP-62 NSCLC
HOP-92 NSCLC = test system: HOP-92 NSCLC
HS 578T breast = test system: HS 578T breast
HT29 colon = test system: HT29 colon
IGROV1 ovarian = test system: IGROV1 ovarian
K-562 leukemia = test system: K-562 leukemia
KM12 colon = test system: KM12 colon
LOX IMVI melanoma = test system: LOX IMVI melanoma
M14 melanoma = test system: M14 melanoma
MALME-3M melanoma = test system: MALME-3M melanoma
MCF7 breast = test system: MCF7 breast
MDA-MB-231 breast = test system: MDA-MB-231 breast
MDA-MB-435 melanoma = test system: MDA-MB-435 melanoma
MDA-MB-468 breast = test system: MDA-MB-468 breast
MOLT-4 leukemia = test system: MOLT-4 leukemia
NCI-H226 lung = test system: NCI-H226 lung
NCI-H23 lung = test system: NCI-H23 lung
NCI-H322M lung = test system: NCI-H322M lung
NCI-H460 NSCLC = test system: NCI-H460 NSCLC
NCI-H522 lung = test system: NCI-H522 lung
NCI/ADR-RES ovarian = test system: NCI/ADR-RES ovarian
OVCAR-3 ovarian = test system: OVCAR-3 ovarian
OVCAR-4 ovarian = test system: OVCAR-4 ovarian
OVCAR-5 ovarian = test system: OVCAR-5 ovarian
OVCAR-8 ovarian = test system: OVCAR-8 ovarian
PC-3 prostate = test system: PC-3 prostate
RPMI-8226 leukemia = test system: RPMI-8226 leukemia
RXF 393 renal = test system: RXF 393 renal
SF-268 CNS = test system: SF-268 CNS
SF-295 CNS = test system: SF-295 CNS
SF-539 CNS = test system: SF-539 CNS
SK-MEL-2 melanoma = test system: SK-MEL-2 melanoma
SK-MEL-28 melanoma = test system: SK-MEL-28 melanoma
SK-MEL-5 melanoma = test system: SK-MEL-5 melanoma
SK-OV-3 ovarian = test system: SK-OV-3 ovarian
SN12C renal = test system: SN12C renal
SNB-19 CNS = test system: SNB-19 CNS
SNB-75 CNS = test system: SNB-75 CNS
SW-620 colon = test system: SW-620 colon
T-47D breast = test system: T-47D breast
TK-10 renal = test system: TK-10 renal
U251 glioblastoma = test system: U251 glioblastoma
UACC-257 melanoma = test system: UACC-257 melanoma
UACC-62 melanoma = test system: UACC-62 melanoma
UO-31 renal = test system: UO-31 renal

## CC[C@H](CC#N)OC(=O)N[C@@H](C)c1cccc(NC(=O)Nc2ccc(-c3cnco3)c(OC)c2)c1
786-0 renal
  GI50: 154 nM
  TGI: 1870 nM
A498 renal
  GI50: 56.9 nM
  TGI: 1720 nM
A549 NSCLC
  GI50: 65.7 nM
  TGI: 1680 nM
ACHN renal
  GI50: 210 nM
  TGI: 12700 nM
BT-549 breast
  GI50: 115 nM
  TGI: 951 nM
CAKI-1 renal
  GI50: 243 nM
  TGI: 11900 nM
CCRF-CEM leukemia
  GI50: 64.9 nM
  TGI: 248 nM
COLO 205 colon
  GI50: 46.3 nM
  TGI: 13100 nM
DU-145 prostate
  GI50: 168 nM
  TGI: 11000 nM
EKVX NSCLC
  GI50: 349 nM
  TGI: 12300 nM
HCC-2998 colon
  GI50: 212 nM
  TGI: 1450 nM
HCT-116 colon
  GI50: 75 nM
  TGI: 10600 nM
HCT-15 colon
  GI50: 286 nM
  TGI: 11800 nM
HL-60(TB) leukemia
  GI50: 53.9 nM
  TGI: 220 nM
HOP-62 NSCLC
  GI50: 258 nM
  TGI: 10700 nM
HOP-92 NSCLC
  GI50: 637 nM
  TGI: 22700 nM
HS 578T breast
  GI50: 171 nM
  TGI: 1540 nM
HT29 colon
  GI50: 137 nM
  TGI: > 100000 nM
IGROV1 ovarian
  GI50: 60.7 nM
  TGI: 10600 nM
K-562 leukemia
  GI50: 48.4 nM
  TGI: 11200 nM
KM12 colon
  GI50: 168 nM
  TGI: 12400 nM
LOX IMVI melanoma
  GI50: 68.9 nM
  TGI: 1400 nM
M14 melanoma
  GI50: 159 nM
  TGI: 1140 nM
MALME-3M melanoma
  GI50: 168 nM
  TGI: 13100 nM
MCF7 breast
  GI50: 159 nM
  TGI: 11300 nM
MDA-MB-231 breast
  GI50: 300 nM
  TGI: 20600 nM
MDA-MB-435 melanoma
  GI50: 353 nM
  TGI: 14600 nM
MDA-MB-468 breast
  GI50: 140 nM
  TGI: 825 nM
MOLT-4 leukemia
  GI50: 20 nM
  TGI: 36.7 nM
NCI-H226 lung
  GI50: 297 nM
  TGI: 10500 nM
NCI-H23 lung
  GI50: 154 nM
  TGI: 664 nM
NCI-H322M lung
  GI50: 275 nM
  TGI: 14700 nM
NCI-H460 NSCLC
  GI50: 74 nM
  TGI: 263 nM
NCI-H522 lung
  GI50: 428 nM
  TGI: 11900 nM
NCI/ADR-RES ovarian
  GI50: 5600 nM
  TGI: 18000 nM
OVCAR-3 ovarian
  GI50: 57.5 nM
  TGI: 10600 nM
OVCAR-4 ovarian
  GI50: 373 nM
  TGI: 15800 nM
OVCAR-5 ovarian
  GI50: 270 nM
  TGI: > 100000 nM
OVCAR-8 ovarian
  GI50: 354 nM
  TGI: 13900 nM
PC-3 prostate
  GI50: 178 nM
  TGI: 10900 nM
RPMI-8226 leukemia
  GI50: 216 nM
  TGI: 957 nM
RXF 393 renal
  GI50: 168 nM
  TGI: 660 nM
SF-268 CNS
  GI50: 244 nM
  TGI: 11000 nM
SF-295 CNS
  GI50: 316 nM
  TGI: 12000 nM
SF-539 CNS
  GI50: 108 nM
  TGI: 8860 nM
SK-MEL-2 melanoma
  GI50: 506 nM
  TGI: 4370 nM
SK-MEL-28 melanoma
  GI50: 126 nM
  TGI: 11000 nM
SK-MEL-5 melanoma
  GI50: 78.7 nM
  TGI: 348 nM
SK-OV-3 ovarian
  GI50: 57.4 nM
  TGI: 898 nM
SN12C renal
  GI50: 314 nM
  TGI: 16600 nM
SNB-19 CNS
  GI50: 166 nM
  TGI: > 100000 nM
SNB-75 CNS
  GI50: 685 nM
  TGI: 14300 nM
SW-620 colon
  GI50: 77.7 nM
  TGI: 12000 nM
T-47D breast
  GI50: 486 nM
  TGI: 10600 nM
TK-10 renal
  GI50: 416 nM
  TGI: 18500 nM
U251 glioblastoma
  GI50: 45.5 nM
  TGI: 11400 nM
UACC-257 melanoma
  GI50: 288 nM
  TGI: 11500 nM
UACC-62 melanoma
  GI50: 236 nM
  TGI: 10600 nM
UO-31 renal
  GI50: 354 nM
  TGI: 8350 nM
